In patent publication US20260283206A1, “SWEETENER COMPOSITIONS” (CARGILL, INCORPORATED, priority 2023, published 2026):
Entries after “also recorded” stand apart in the source; their conditions may differ.

Experiment: Sensory panel assay of aqueous steviol glycoside solutions (roundtable consensus, descriptive analysis)
Type: in vivo
Conditions: 500 ppm in reverse osmosis water, panel of four; for Sensory Attribute Comments - Off-tastes (bitterness, metallic taste) / Sensory Attribute Comments - Sweetness (intensity / profile): compared against Reb A and Reb D/M
Method: Assays were carried out to characterize the sensory attributes, e.g., sweetness profile, of aqueous solutions of samples. Sensory attributes of the compositions were tested by a panel of individuals that are experienced in sensory testing. The experienced panelists assessed sensory attributes such as, but not limited to, bitterness, metallic notes, mouth drying, sweetness intensity, and sweetness linger. The panelists compared the sweeteners against Reb A and Reb D/M. To test each composition, the experienced panelists dispensed approximately 2-4 fl oz of each sample or solution into their own mouths, dispersed the solution by moving their tongues, and individually recorded a sensory attribute scale value. Between tasting solutions, the panelists were able to cleanse their palates with water and/or rice crackers.
Assays were carried out to characterize the sensory attributes of aqueous solutions. Sensory attributes were analyzed by a panel of four individuals using a roundtable consensus approach. All panelists used the assay method described above. The panelists provided a descriptive analysis of the samples. The sensory attributes of Reb A and Reb D/M are known, and thus Reb A and Reb D/M were used as comparative samples. The sweetness profile of Reb A is described in the art, for example in DuBois et al. (“Concentration—Repose Relationship of Sweeteners,” Sweeteners: Discovery, Molecular Design, and Chemoreception, Chapter 20, pages 261-276, American Chemical Society 1991).

## C=C1CC23CCC4C(C)(C(=O)OC5OC(CO)C(O)C(OC6OC(CO)C(O)C(O)C6O)C5OC5OCC(O)C(O)C5O)CCCC4(C)C2CCC1(OC1OC(CO)C(O)C(OC2OC(CO)C(O)C(O)C2O)C1OC1OC(CO)C(O)C(O)C1O)C3 (stereo not drawn) [Sample 2, rebaudioside V2]
  Sensory Attribute Comments - Sweetness onset and rise: (Reb D/M). Slight delay in onset (less delay than Sample; also recorded: very rapid rise
  Sensory Attribute Comments - Off-tastes (bitterness, metallic taste): Off-tastes: Very faint bitterness. Quite clean sweetness.
  Sensory Attribute Comments - Sweetness (intensity / profile): Sweetness: Higher peak sweetness than Sample 5

## C=C1C[C@@]23CC[C@H]4[C@@](C)(CCC[C@@]4(C)C(=O)O[C@@H]4O[C@H](CO)[C@@H](O)[C@H](O)[C@H]4O[C@@H]4O[C@H](CO)[C@@H](O)[C@H](O)[C@H]4O)[C@@H]2CC[C@]1(O[C@@H]1O[C@H](CO)[C@@H](O)[C@H](O[C@@H]2O[C@H](CO)[C@@H](O)[C@H](O)[C@H]2O)[C@H]1O[C@@H]1OC[C@@H](C)[C@H](O)[C@H]1O)C3 [Sample 1, rebaudioside EM]
  Sensory Attribute Comments - Off-tastes (bitterness, metallic taste): Off-tastes: Less bitter than Reb A.

## C=C1C[C@@]23CC[C@H]4[C@@](C)(CCC[C@@]4(C)C(=O)O[C@@H]4O[C@H](CO)[C@@H](O)[C@H](O)[C@H]4O)[C@@H]2CC[C@]1(O[C@@H]1O[C@H](CO)[C@@H](O)[C@H](O[C@@H]2O[C@H](CO)[C@@H](O)[C@H](O)[C@H]2O)[C@H]1O[C@@H]1O[C@H](CO)[C@@H](O)[C@H](O)[C@H]1O)C3 [Sample 3, rebaudioside A, reference compound]
  Sensory Attribute Comments - Off-tastes (bitterness, metallic taste): Off-tastes: Typical Reb A bitterness, metallic taste.
  Sensory Attribute Comments - Sweetness (intensity / profile): Sweetness: Sweetness profile typical of Reb A.
